Experimental data from a melting point compilation (Tetko et al.).

SMILES	melting point [°C]
CCC1OC(=O)C(C)C(OC2CC(C)(OC)C(O)C(C)O2)C(C)C(OC2OC(C)CC(N(C)C)C2O)C(C)(O)CC(C)C(=O)C(C)C(O)C1(C)O (stereo not drawn)	135
ClC1OCCOC1Cl (stereo not drawn)	30
O=NN1CCOCC1	29
CC(C)(C)OC(=O)N[C@@H](Cc1ccc(O)cc1)C(=O)O	135 to 140
CC(C)CC(O)C(=O)O (racemic)	75 to 78
O=C(O)c1ccc(O)cc1Cl	207 to 209
O=C1Cc2ccccc2O1	50
CC(NC(=O)COC(=O)c1ccccc1)C(N)=O (stereo not drawn)	202
C[Si](C)(Oc1ccccc1)Oc1ccccc1	-23
c1ccc(COc2ccc3ccccc3c2)cc1	97
CSc1nn(CO)c(=S)s1	72 to 74
COC(=O)c1c(C=O)ccc(OC)c1OC	83
O=Cc1ccc(-c2nccs2)cc1	90 to 91
Nc1cc(F)ccc1Br	44
c1ccc(P(CCP(c2ccccc2)c2ccccc2)c2ccccc2)cc1	141
CCCCCCCF	-73
Nc1cccc2c(N)cccc12	190
CC(C)(Oc1ccccc1)C(=O)O	98.5
O=C1N[C@@H](c2ccccc2)CO1	130 to 133
Clc1ccc(C=NCCN=Cc2ccc(Cl)cc2)cc1	125
CCCCOC(N)=O	51 to 56
CCCCCCCCCC(=O)c1ccccc1	34 to 38
OCc1ccccc1C(c1ccc(O)cc1)c1ccc(O)cc1	202
Clc1cc(Cl)c2c(oc3c(Cl)cccc32)c1Cl	177
CC(C)[C@@H]1C(=O)N(c2ccccc2)[C@@H]1c1ccccc1	169
CCCCCCC(O)CC (stereo not drawn)	22

SMILES	melting point [°C]
NCc1ccc(-n2cccn2)cc1	75 to 78
CC(C)(C)c1ccc(C2CCC3(CC2)Cc2ccc(OS(=O)(=O)C(F)(F)F)cc2C3)cc1 (stereo not drawn)	122 to 124
Cc1cc2occc(=O)c2cc1Cl	171
OCc1cc(C(F)(F)F)cc(C(F)(F)F)c1	54
CCCC(N)P(=O)(O)O (stereo not drawn)	276 to 281
O=C(Cc1ccc(Oc2ccccc2)cc1)c1ccccc1	58.3 to 59.9
COc1cc(N)c(Cl)cc1C(=O)NC1CCN(Cc2ccccc2)CC1	194
Cc1cc(C)c2c(c1C)CC2	20 to 28
COc1cc2c(cc1OC)C(CCO)NCC2 (stereo not drawn)	103 to 107
CSc1nc2cc(N=Cc3ccc(F)cc3)ccc2[nH]1	174 to 175
CCN(CC)c1ccc(N=Nc2ccccc2)cc1	97.5
CCc1ccccc1Cc1ccccc1N	35
C1CCC(N2CCNCC2)CC1	28 to 32
ClC(Cl)N(C(Cl)Cl)C(Cl)Cl	170 to 173
O=S(=O)(Cl)c1cc(C(F)(F)F)ccc1N1CCOCC1	81.5 to 84
CC(C)(C)OC(=O)N1CC(C(=O)O)C1	102
CCC(=O)c1ccc[nH]1	50
Cc1nccc(O)c1OCc1ccc(Cl)cc1	195 to 199
C=C(C)CO	-50
Cc1c2cccc(-c3ccccc3)c2cc2c(-c3ccccc3)cccc12	177
CC1=CC(=O)OC2(C1)CC1CCC2CN1C (stereo not drawn)	54.5
CCCCc1nc(Cl)c(CO)n1Cc1ccc(-c2ccccc2-c2nn[nH]n2)cc1	184
O=CCc1ccccc1	33.5
CCc1ccc(O)c(OC)c1	15
COP(=S)(OC)Oc1cc(Cl)c(Cl)cc1Cl	41
COC(=O)C1CCCc2c1[nH]c1ccc(OC)cc21 (stereo not drawn)	92

SMILES	melting point [°C]
O=C(CCl)c1cccc(C(=O)CCl)c1	90
C=CC1=C(C(=O)O)N2C(=O)C(NC(=O)C(=NOCC(=O)O)c3csc(N)n3)C2SC1 (stereo not drawn)	222
O=C(O)c1ccc(-c2nccs2)cc1	239 to 241
NNC(=O)CSC1CS(=O)(=O)c2cc([N+](=O)[O-])ccc21 (stereo not drawn)	181 to 182
CC1(C)SC2C(NC(=O)C(N)c3ccccc3)C(=O)N2C1C(=O)O (stereo not drawn)	208
CC(C)COC(=O)c1ccc(N)cc1	64.5
CC(C)(C)c1ccc2c(c1)-c1cc(C(C)(C)C)ccc1C2	81
CC1(C)C2CCC1(C)C(O)C2CCO (stereo not drawn)	83
O=S(=O)(F)Cc1ccccc1	93
CCOC(=O)C(C(C)=O)C(=O)/C=C/c1ccc(OC)c(OCc2ccccc2)c1 (stereo not drawn)	207 to 208
CCCCCCCCCCCCC1=C(OC(C)=O)C(=O)c2ccccc2C1=O	59.6
CC12CCC(C(COC(=O)c3ccccc3)C1=O)C2(C)C (stereo not drawn)	96
CC12CCC(/C(=N/O)C/C1=N\O)C2(C)C (stereo not drawn)	209
NC1CCCCCCC1	-48
CCOC(=O)Oc1c(-c2ccccc2)[nH]c2cc([N+](=O)[O-])ccc12	170
CC(CCC(=O)O)n1nc2ccccc2n1 (stereo not drawn)	73
NNC(=O)c1ccncc1	171
NS(=O)(=O)c1c(Cl)nc2sccn12	176 to 177
Cc1ccccc1P(c1ccccc1)c1ccccc1	72
O=C(CBr)Nc1ccccc1C(=O)c1ccccc1	94 to 95
Cc1nc2ccc(Br)cn2c(=O)c1C(=O)c1ccccc1	245 to 247
Cc1nnc(-c2ccccn2)nc1C	85
O=Cc1ncccc1F	49 to 52
O=C(O)C(O)Cc1ccccc1 (stereo not drawn)	121 to 125
Cc1ccc(S(=O)(=O)c2coc(S(N)(=O)=O)c2)cc1	185
Cn1c(C(=O)O)ccc1S(N)(=O)=O	210 to 212

SMILES	melting point [°C]
Clc1cc(Cl)c(-c2c(Cl)cccc2Cl)c(Cl)c1	85
CC(=C(C)c1ccccc1)c1ccccc1	64 to 66
NC(=O)C1CCN(c2nccc(C(F)(F)F)n2)CC1	194 to 196
Cn1ccc2cc([N+](=O)[O-])ccc21	167 to 169
Cc1nc(-c2cccc(C=O)c2)no1	98 to 99
c1ccc(-c2cc(-c3ccccc3)cc(-c3ccccc3)c2)cc1	172 to 175
COc1ccc(CC(=O)O)cc1O	128 to 130
O=C1c2ccccc2CC2C=CC=CN12 (stereo not drawn)	93
COc1cc(O)cc(OC)c1OC	146 to 149
Cc1nn(C)c(Oc2ccccc2)c1C=NOCc1ccc(C(=O)OC(C)(C)C)cc1	102
Oc1cc2c(cc1O)CCN=C2	244 to 248
O=C1C2CC(CN3CCCCC23)C2CCCCN12 (stereo not drawn)	111
COC(=O)c1cc(C)ccc1O	-1
O=C(O)c1coc2c1C(=O)CCC2	140 to 143
CC12CCC(C(O)=C/C1=N\Nc1ccccc1)C2(C)C (stereo not drawn)	188
CC(=O)c1cc(Br)ccc1O	58 to 61
Nc1ccc(C=O)cc1	71.5
COc1ccc(C#N)c(F)c1F	84
OCc1csc2ccc(Br)cc12	79 to 81
O=C1OC(=O)[C@H]2[C@@H]1[C@@H]1C3C=CC([C@H]21)[C@H]1C(=O)OC(=O)[C@@H]31	355 to 357
O=C(C=NNc1ccccc1)c1ccc(C(=O)C=NNc2ccccc2)cc1	210
COc1cc(C)c(C=CC(C)=CC=CC(C)=CC(=O)O)c(C)c1C	228
CC1(C)OC(=O)C(=Cc2ccc(-c3cccc([N+](=O)[O-])c3)o2)C(=O)O1	179
COc1ccc2oc(C(=O)O)cc2c1	212 to 214
Cc1ccc(C(=O)NCC(=O)O)cc1	162 to 166
CC(C)(C)OC(=O)n1cccc1C=O	51

SMILES	melting point [°C]
CC(C)(C)c1cc(C(F)(F)F)n[nH]1	178 to 180
C1CN2CCN3CCN4CCN1C2C43 (stereo not drawn)	30
Cn1c(=O)c2c(ncn2CC(O)CO)n(C)c1=O (stereo not drawn)	162
CC(=O)NNC(N)=S	165 to 170
COc1cc(OC(C)=O)c2c(=O)c(O[C@@H]3O[C@H](COC(C)=O)[C@H](OC(C)=O)[C@H](OC(C)=O)[C@@H]3O[C@@H]3O[C@H](C)[C@H](OC(C)=O)[C@H](OC(C)=O)[C@@H]3OC(C)=O)c(-c3ccc(OC(C)=O)c(OC(C)=O)c3)oc2c1	117 to 120
CCCCC(C)CC(O)C=CC1C(O)CC(=O)C1CCCCC=CC(=O)O (stereo not drawn)	97
CC(C)CC(C)(C)CO	-70
CCSc1nnn[nH]1	88 to 89
CC#CC(C)CC (stereo not drawn)	-108
CCCC(C)(O)C#CC(C)(O)CCC (stereo not drawn)	68.5
CN1C(=O)COc2ccccc21	59
C=CCN1CCC23c4c5ccc(O)c4OC2C(O)C=CC3C1C5 (stereo not drawn)	208
O=C(O)CNC(=O)c1ccccc1	222
C=C1C(=O)C23C4CC5C(C)(C)CCCC56COC(CC1C2OC(C)(C)O4)C63 (stereo not drawn)	163
NC(=O)[C@@H]1CCCN1	97 to 102
Cc1cc(C(=O)NCCc2ccc(S(=O)(=O)NC(=O)NN3CCCCCC3)cc2)no1	189
CC1(C)CC(=O)C2=C(C1)Nc1ccc3ccccc3c1C2c1ccc(O)cc1 (stereo not drawn)	314
Cc1c(C)c(C)c(CC#N)c(C)c1C	112
ClC1=C(Cl)C2(Cl)C3C(c4ccccc4C4C3C3(Cl)C(Cl)=C(Cl)C4(Cl)C3(Cl)Cl)C1(Cl)C2(Cl)Cl (stereo not drawn)	217 to 220
Clc1cncc(Cl)c1Cl	72
CC(=O)C1CCC2C3CC(C)C4=CC(=O)CCC4(C)C3C(O)CC12C (stereo not drawn)	156
CCc1c(C)nc(NC(=O)NS(=O)(=O)c2cccs2)nc1O	179 to 180
NC(=S)Nc1ccc(C(=O)O)cc1	255
O=C=Nc1ccc(Br)cc1Cl	71 to 75
